The values below come from ChEMBL document CHEMBL5465560, “Selectivity Literature for EUbOPEN Chemogenomic Library” (2024).

Experiment [1] deals with T1, Atypical kinase COQ8B, mitochondrial (Homo sapiens) (UniProt Q96D53).
T1 sequence (whole entry): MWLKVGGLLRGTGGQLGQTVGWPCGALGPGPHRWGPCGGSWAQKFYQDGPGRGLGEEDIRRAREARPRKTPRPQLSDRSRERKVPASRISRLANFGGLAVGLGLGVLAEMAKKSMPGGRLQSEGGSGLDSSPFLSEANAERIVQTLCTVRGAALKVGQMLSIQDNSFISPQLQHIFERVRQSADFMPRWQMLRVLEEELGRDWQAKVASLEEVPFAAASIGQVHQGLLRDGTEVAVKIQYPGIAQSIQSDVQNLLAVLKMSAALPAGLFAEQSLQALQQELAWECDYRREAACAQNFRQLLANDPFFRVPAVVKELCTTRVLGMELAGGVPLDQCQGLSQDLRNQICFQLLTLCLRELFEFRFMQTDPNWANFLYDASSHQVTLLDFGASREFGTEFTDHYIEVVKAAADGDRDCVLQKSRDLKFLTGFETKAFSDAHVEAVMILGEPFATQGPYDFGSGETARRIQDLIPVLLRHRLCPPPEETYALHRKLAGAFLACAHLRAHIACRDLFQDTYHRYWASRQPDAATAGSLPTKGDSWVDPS
The experiment is described as follows: Selectivity interaction (Ambit KINOMEscan and KiNATiv profiling in Jurkat cells) EUB0000090b ADCK4. Format: cell-based. Conditions: at 1 µM.

Experiment [2] has as its target MAP/microtubule affinity-regulating kinase 3 (Homo sapiens) (UniProt P27448). The experiment is described as follows: Selectivity interaction (Ambit KINOMEscan and KiNATiv profiling in Jurkat cells) EUB0000090b MARK3. The format is cell-based. Conditions: at 1 µM.
The target in experiment [3] is Non-receptor tyrosine-protein kinase TYK2 (Homo sapiens, UniProt P29597). The experiment is described as follows: Selectivity interaction (KinomeScan (DiscoverX)) EUB0000607a TYK2. Conditions: at 10 µM.
Sequence of Non-receptor tyrosine-protein kinase TYK2 (P29597 whole entry): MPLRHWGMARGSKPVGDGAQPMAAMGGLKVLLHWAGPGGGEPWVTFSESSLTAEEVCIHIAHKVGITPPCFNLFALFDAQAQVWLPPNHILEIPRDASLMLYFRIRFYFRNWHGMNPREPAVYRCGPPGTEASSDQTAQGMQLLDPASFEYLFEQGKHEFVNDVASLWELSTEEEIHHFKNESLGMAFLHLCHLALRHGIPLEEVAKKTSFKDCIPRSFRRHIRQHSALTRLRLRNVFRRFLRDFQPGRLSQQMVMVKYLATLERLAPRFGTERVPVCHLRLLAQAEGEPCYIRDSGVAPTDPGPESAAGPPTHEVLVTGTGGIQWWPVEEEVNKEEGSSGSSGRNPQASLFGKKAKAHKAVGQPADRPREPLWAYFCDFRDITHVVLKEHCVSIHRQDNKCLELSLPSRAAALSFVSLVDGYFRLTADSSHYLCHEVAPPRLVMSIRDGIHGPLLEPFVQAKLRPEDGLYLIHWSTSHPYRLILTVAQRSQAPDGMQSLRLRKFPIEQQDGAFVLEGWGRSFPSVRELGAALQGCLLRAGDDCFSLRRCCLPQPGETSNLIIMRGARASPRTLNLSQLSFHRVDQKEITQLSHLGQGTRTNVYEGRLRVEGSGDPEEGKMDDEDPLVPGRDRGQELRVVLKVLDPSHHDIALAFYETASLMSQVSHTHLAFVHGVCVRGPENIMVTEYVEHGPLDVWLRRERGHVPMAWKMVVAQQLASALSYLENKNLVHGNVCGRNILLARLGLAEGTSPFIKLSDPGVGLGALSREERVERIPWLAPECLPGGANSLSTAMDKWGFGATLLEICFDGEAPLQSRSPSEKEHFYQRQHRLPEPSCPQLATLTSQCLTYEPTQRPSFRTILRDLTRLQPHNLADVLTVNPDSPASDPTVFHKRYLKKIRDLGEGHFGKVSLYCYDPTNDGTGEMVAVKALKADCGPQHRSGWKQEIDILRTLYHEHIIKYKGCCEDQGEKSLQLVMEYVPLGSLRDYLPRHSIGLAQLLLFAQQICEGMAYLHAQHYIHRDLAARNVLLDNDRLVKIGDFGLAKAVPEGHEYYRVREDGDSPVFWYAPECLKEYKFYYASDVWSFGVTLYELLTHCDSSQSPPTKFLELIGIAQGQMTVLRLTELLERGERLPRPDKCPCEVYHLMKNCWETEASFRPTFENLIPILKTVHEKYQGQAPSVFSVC
Experiment [4] addresses Cyclin-dependent kinase 16 (Homo sapiens) (UniProt Q00536). Description: Selectivity interaction (KinomeScan (DiscoverX)) EUB0000666a CDK16. Conditions: at 10 µM.
For experiment [5], the target named is Tyrosine-protein kinase JAK1 (Homo sapiens, UniProt P23458). The experiment is described as follows: Selectivity interaction (KinomeScan (DiscoverX)) EUB0000666a JAK1. Conditions: at 10 µM.
The target of experiment [6] is Histone-lysine N-methyltransferase KMT5C (Homo sapiens) (UniProt Q86Y97). Conditions: at 1 µM.
Sequence of Histone-lysine N-methyltransferase KMT5C (Homo sapiens) (Q86Y97 whole entry, looked up): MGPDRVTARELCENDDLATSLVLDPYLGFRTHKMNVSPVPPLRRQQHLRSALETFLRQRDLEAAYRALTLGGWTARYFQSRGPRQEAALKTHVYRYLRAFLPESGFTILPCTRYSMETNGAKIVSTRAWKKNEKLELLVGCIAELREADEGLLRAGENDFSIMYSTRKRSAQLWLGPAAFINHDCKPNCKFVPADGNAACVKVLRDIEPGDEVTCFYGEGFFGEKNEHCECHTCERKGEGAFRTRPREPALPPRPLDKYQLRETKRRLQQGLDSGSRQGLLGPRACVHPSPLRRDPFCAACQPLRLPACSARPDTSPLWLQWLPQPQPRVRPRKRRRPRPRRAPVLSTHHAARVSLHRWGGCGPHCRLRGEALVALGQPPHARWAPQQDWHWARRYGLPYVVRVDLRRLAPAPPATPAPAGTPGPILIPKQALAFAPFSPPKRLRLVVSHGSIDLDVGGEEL
The target of experiment [7] is T2, Serine/threonine-protein kinase ULK3 (Homo sapiens) (UniProt Q6PHR2).
T2 sequence (whole entry): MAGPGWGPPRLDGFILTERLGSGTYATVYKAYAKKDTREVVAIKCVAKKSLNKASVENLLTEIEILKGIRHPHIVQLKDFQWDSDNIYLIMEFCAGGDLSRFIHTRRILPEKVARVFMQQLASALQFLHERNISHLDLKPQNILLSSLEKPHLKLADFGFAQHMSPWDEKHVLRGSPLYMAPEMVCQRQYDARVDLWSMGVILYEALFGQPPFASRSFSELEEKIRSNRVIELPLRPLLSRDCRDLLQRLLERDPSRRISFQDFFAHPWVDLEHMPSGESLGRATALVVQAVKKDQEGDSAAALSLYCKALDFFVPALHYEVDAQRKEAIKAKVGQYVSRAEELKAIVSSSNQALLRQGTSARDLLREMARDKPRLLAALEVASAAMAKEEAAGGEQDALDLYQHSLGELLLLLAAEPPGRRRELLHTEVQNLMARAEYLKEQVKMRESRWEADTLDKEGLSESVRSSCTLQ
The experiment is described as follows: Selectivity interaction (KinomeScan (DiscoverX)) EUB0000655a ULK3. Conditions: at 10 µM.

Experiment [8] has as its target Cyclin-dependent kinase 7 (Homo sapiens, UniProt P50613). Description: Selectivity interaction (KinomeScan (DiscoverX)) EUB0001079a CDK7. Conditions: at 1 µM.
For experiment [9], the target named is T3, Mitogen-activated protein kinase 12 (Homo sapiens) (UniProt P53778).
T3 sequence (whole entry): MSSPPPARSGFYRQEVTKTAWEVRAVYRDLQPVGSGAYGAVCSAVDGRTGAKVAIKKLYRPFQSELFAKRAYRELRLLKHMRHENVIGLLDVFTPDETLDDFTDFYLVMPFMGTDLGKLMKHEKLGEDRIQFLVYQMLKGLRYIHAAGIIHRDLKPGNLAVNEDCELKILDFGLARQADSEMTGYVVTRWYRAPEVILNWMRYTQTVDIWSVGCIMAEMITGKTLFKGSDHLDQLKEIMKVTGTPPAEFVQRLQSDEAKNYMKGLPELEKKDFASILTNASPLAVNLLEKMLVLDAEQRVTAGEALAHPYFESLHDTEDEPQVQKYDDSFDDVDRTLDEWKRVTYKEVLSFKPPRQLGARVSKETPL
The experiment is described as follows: Selectivity interaction (ActivX KiNativ screen (kinase selectivity in THP-1 cell lysates)) EUB0000639a MAPK12. The format is subcellular. Conditions: lysate.

The target of experiment [10] is Serine/threonine-protein kinase 16 (Homo sapiens, UniProt O75716). Description: Selectivity interaction (ActivX KiNativ screen (kinase selectivity in THP-1 cell lysates)) EUB0000639a STK16. Conditions: lysate, at 5 µM. Format: subcellular.
Sequence of Serine/threonine-protein kinase 16 (O75716 whole entry): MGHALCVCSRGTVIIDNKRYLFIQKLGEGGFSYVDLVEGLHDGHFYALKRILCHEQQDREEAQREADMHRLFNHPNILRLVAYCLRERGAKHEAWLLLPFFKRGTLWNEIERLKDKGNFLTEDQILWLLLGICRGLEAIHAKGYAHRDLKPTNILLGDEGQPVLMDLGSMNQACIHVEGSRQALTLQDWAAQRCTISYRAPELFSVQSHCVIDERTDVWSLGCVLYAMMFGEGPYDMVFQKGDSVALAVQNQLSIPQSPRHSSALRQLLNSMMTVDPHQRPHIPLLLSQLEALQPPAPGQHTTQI
Experiment [11] deals with T4, Serine/threonine-protein kinase STK11 (Homo sapiens) (UniProt Q15831).
T4 sequence (whole entry): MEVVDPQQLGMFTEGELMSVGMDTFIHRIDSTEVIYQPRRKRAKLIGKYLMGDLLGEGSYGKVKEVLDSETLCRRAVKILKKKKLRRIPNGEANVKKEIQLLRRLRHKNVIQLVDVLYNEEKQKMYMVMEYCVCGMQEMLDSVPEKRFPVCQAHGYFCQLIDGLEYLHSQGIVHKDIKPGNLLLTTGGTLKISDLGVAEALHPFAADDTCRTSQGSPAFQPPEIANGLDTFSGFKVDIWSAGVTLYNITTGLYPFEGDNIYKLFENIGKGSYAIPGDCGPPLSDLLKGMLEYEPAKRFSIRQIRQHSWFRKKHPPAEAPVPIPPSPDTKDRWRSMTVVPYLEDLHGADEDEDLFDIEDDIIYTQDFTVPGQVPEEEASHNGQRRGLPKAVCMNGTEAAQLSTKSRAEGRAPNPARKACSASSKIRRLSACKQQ
Description: Selectivity interaction (KinomeScan (DiscoverX)) EUB0000695a STK11. Conditions: at 100 nM.

Experiment [12] addresses Phosphorylase b kinase gamma catalytic chain, skeletal muscle/heart isoform (Homo sapiens) (UniProt Q16816). Description: Selectivity interaction (ProQinase) EUB0000171b PHKG1.
The target of experiment [13] is Rho-associated protein kinase 1 (Homo sapiens) (UniProt Q13464). Description: Selectivity interaction (KinomeScan (DiscoverX)) EUB0000618a ROCK1. Conditions: at 10 µM.
Experiment [14] concerns the target Tyrosine-protein kinase HCK (Homo sapiens) (UniProt P08631). The experiment is described as follows: Selectivity interaction (KinomeScan (DiscoverX)) EUB0000618a HCK. Conditions: at 10 µM.
Experiment [15] addresses Hepatocyte growth factor-like protein (Homo sapiens) (UniProt P26927). Conditions: at 1 µM.
The target of experiment [16] is TRAF2 and NCK-interacting protein kinase (Homo sapiens) (UniProt Q9UKE5). The experiment is described as follows: Selectivity interaction (KinomeScan (DiscoverX)) EUB0000595a TNIK. Conditions: at 10 µM.

Sequence of Phosphorylase b kinase gamma catalytic chain, skeletal muscle/heart isoform (Homo sapiens) (Q16816 whole entry, looked up, canonical isoform): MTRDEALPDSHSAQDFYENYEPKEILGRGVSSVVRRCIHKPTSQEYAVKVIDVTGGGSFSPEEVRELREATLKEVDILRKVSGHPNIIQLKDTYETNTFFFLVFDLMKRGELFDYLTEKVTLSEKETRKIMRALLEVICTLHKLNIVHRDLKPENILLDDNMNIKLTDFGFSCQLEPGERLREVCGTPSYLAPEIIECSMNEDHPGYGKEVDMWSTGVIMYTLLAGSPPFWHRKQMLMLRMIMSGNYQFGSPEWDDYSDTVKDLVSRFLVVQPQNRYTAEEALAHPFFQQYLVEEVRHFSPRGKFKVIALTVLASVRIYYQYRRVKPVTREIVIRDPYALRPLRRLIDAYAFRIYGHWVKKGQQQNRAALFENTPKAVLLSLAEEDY
Sequence of MAP/microtubule affinity-regulating kinase 3 (Homo sapiens) (P27448 whole entry, looked up): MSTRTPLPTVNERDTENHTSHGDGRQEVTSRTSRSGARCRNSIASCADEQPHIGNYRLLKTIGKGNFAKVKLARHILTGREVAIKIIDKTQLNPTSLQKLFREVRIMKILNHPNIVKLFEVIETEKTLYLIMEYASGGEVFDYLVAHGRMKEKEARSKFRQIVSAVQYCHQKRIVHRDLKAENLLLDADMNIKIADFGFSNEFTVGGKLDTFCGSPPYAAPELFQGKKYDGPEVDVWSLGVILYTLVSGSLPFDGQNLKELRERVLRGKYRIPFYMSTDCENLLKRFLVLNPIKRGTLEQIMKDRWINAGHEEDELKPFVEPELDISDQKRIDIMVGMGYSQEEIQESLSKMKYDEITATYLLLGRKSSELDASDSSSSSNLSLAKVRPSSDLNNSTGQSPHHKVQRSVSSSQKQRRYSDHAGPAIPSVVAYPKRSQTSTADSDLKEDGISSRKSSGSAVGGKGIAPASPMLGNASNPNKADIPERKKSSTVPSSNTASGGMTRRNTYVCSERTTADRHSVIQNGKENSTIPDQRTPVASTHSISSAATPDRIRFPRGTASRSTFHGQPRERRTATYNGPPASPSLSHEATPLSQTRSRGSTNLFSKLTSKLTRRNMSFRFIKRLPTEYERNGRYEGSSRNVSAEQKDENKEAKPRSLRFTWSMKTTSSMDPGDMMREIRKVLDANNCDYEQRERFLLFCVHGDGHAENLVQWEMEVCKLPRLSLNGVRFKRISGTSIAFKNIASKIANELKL
Sequence of Tyrosine-protein kinase HCK (Homo sapiens) (P08631 2-526 limits assumed): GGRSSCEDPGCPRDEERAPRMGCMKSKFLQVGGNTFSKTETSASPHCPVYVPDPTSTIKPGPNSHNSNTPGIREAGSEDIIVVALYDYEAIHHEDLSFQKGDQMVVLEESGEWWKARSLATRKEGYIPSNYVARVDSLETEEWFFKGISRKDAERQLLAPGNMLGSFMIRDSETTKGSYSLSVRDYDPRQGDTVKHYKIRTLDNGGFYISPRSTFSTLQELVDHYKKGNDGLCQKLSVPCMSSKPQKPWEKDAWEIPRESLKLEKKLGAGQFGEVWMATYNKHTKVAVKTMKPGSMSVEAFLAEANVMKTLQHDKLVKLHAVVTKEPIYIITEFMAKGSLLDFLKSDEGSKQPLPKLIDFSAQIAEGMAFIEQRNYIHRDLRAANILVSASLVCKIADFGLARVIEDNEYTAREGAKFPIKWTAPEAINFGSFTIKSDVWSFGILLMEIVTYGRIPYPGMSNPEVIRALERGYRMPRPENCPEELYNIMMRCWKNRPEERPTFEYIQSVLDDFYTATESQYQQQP
Sequence of Cyclin-dependent kinase 7 (P50613 whole entry): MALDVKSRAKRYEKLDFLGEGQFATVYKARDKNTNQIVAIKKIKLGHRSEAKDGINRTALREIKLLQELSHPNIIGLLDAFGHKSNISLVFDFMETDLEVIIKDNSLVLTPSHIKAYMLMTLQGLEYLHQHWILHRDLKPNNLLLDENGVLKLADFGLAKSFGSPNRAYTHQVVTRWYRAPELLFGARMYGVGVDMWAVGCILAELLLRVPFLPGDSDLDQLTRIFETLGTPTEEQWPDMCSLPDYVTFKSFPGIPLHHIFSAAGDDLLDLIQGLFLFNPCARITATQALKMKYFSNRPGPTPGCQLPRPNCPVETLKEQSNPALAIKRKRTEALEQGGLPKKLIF
Sequence of Cyclin-dependent kinase 16 (Homo sapiens) (Q00536 whole entry): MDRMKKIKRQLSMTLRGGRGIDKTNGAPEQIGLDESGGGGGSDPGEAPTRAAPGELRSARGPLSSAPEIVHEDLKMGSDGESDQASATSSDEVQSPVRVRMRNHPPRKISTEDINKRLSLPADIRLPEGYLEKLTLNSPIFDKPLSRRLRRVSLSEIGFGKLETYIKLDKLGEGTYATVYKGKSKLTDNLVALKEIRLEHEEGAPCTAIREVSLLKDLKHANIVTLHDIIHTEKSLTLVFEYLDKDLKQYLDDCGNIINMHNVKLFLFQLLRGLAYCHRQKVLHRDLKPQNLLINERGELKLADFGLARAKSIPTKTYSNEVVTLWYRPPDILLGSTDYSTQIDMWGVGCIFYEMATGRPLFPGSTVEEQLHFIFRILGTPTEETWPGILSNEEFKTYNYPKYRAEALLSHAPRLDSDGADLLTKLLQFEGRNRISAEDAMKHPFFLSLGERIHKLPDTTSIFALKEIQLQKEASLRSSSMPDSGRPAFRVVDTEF

For `CN(C)C/C=C/C(=O)Nc1ccc(C(=O)N2CCCC(Nc3ncc(Cl)c(-c4c[nH]c5ccccc45)n3)C2)cc1` (stereo unspecified), the % of control amounted to 69% in [1] and 88% in experiment [2]. In [3], `CNC(=O)Nc1ccc(-c2nc(N3CC4CCC(C3)O4)c3cnn(C4CCC5(CC4)OCCO5)c3n2)cc1` registered a % of control of 100%.

With `O=C(NOC[C@H](O)CO)c1ccc(F)c(F)c1Nc1ccc(I)cc1F`, the % of control in experiment [4] and in experiment [5] was 100% each time.

As for `CNCCN1CCC(c2cc(CN(C)C(=O)c3cccc(Oc4ccccc4)c3)ccn2)CC1`, the % activity in [6] was above 90%. As to `CN(C)CCOc1ccc(-c2nc(-c3ccncc3)c(-c3ccc4c(c3)CC/C4=N\O)[nH]2)cc1`, the % of control in experiment [7] came to 88%. Regarding `Nc1cnc(N2CCc3cc(S(=O)(=O)Nc4c(F)cc(Cl)cc4F)cc(N4CCCC4=O)c32)nc1` [TP-020n], the % of control in experiment [8] came to 100%. On to `CC[C@@H]1[C@H](F)C(=O)N[C@@H]1COc1nccc2cc(C(N)=O)c(OC)cc12` [ZIMLOVISERTIB], for which the % of inhibition in experiment [9] (at 0.01 µM) is -4.4%; in [9] (at 0.04 µM), 6%; in experiment [9] (at 0.2 µM), -3.6%; in experiment [9] (at 1 µM) it was 7.4%; in [9] (at 5 µM) it was 20.3%; in experiment [10] it was 81.9%. With `Cc1cc(F)c(C(=O)Nc2cccc(-c3nncn3C(C)C)n2)cc1-n1cnc(C2CC2)c1`, the % of control in experiment [11] came to 80%.

On to `C=CC(=O)Nc1cccc(C(=O)Nc2ccc(Nc3cc(-c4[nH]c(SC)nc4C)ccn3)cc2)c1`, for which the % of control in experiment [12] (at 1 µM) is 80%; in [12] (at 5 µM), 44%.

As for `O[C@H]1CC[C@H](Nc2ncc3nc(Nc4c(F)cc(F)cc4F)n([C@H]4CCOC4)c3n2)CC1`, the % of control in experiment [13] was 91%; in experiment [14], 100%.

As to `Cc1ccc(-c2ccc3c(ccc4sc5c(c43)NC[C@@H](C)NC5=O)n2)cn1`, the % of inhibition in experiment [15] amounted to 6%. In turn, `COCC(=O)NC/C=C/c1ccc2ncnc(Nc3ccc(Oc4ccc(C)nc4)c(C)c3)c2c1` [CP-724714] yielded a % of control in [16] of 89%.
